From PMC12062019, “Therapeutic effects of medicinal and food-based traditional herbal couples on type 2 diabetes mellitus based on pharmacodynamics and pharmacokinetics” (Frontiers in Pharmacology, 2025)

What was measured:
[1] = system: Caco-2 cells; assay: CCK-8 cell viability, Caco-2; conditions: Caco-2, 24 h, concentrations up to 65 μg/mL
Procedure: (§1) HT29 cells were grown in McCoy’s 5A medium containing 10% fetal bovine serum, 1% non-essential amino acids, and 1% penicillin-streptomycin, and other conditions were the same as those for Caco-2 cells culture, with the medium being changed every other day. […] They were incubated at 37°C for 24 h to allow cell adhesion. […] After this, the medium was removed and the cells were co-incubated with 10 μL of CCK-8 solution for 4 h. The absorbance values (OD) were measured at 450 nm using a SpectraMax 190 Enzyme Marker. The blank group consisted of wells that were not inoculated with cells, and the control group included wells containing cells but not exposed to the sample solution. Each group was performed in six replicates. Cell viability was calculated using the following formula: Cell activity%=Experimental Group OD value−Blank Group OD value/Control Group OD value−Blank Group OD value×100%

[2] = system: HT29 cells; assay: CCK-8 cell viability, HT29; conditions: HT29, 24 h, concentrations up to 65 μg/mL
Procedure: as §1

[3] = parameters: method as in Wang et al., 2020; conditions: poor lipid and water solubility; ref Wang et al., 2020; cited from earlier work
[4] = system: T2DM rats; assay: Blood glucose and body weight in high-fat diet/STZ-induced T2DM rat model; assay type: in vivo; conditions: gavage once daily, weight first decreased then increased
Procedure: The T2DM rat model was developed by intraperitoneal injection of streptozotocin (STZ). 60 male SD rats were acclimatised and reared for 1 week, then blood glucose and body weight were measured, and the rats were randomly divided into 10 in the normal group and 50 in the modelling group according to blood glucose and body weight. The T2DM rat was fed with high-fat chow for 4 weeks, and at the end of the 4 weeks, the rats were fasted for 12 h without food or water, and were injected with a one-time intraperitoneal injection of 35 mg/kg of 1% STZ solution. The normal group was fed with normal chow, and was given free access to drinking water, and was injected intraperitoneally with the same dose of citrate-sodium citrate buffer as that of the T2DM rat. The blood was collected from the tail vein for fasting blood glucose (FBG) measurement after 72 h. FBG of 16.7 mmol/L was considered successful in T2DM model replication. The T2DM rat model was successfully replicated.
For better drug delivery, we used a rotary evaporator to concentrate the CR-PLR decoction, CR decoction and PLR decotion to crude drug (1 g/mL), respectively. […]

[5] = system: gut flora of rats; assay: 16s rDNA sequencing of gut flora of rats; assay type: in vivo, rat; conditions: T2DM rats
[6] = Genus level, compared to the model group

Row | SMILES | relative cell viability [1] | relative cell viability [2] | BCS classification system class [3] | weeks of administration after which body weight increased [4] [weeks] | percentage of Lachnospiraceae flora ([5]; Family level) [%] | percentage of Lactobacillaceae flora ([5]; Family level) [%] | percentage of Ruminococcaceae flora ([5]; Family level) [%] | percentage of Ligilactobacillus flora ([5]; Genus level) [%] | percentage of lactobacilli flora ([5]; Genus level) [%] | percentage of Akkermansia flora [5, 6] | percentage of Ruminococcus flora [5, 6] | number of independent OTUs ([5]; gut flora, Venn plot)
1 | O=c1c(-c2ccc(O)cc2)coc2c([C@@H]3O[C@H](CO)[C@@H](O)[C@H](O)[C@H]3O)c(O)ccc12 [PUR, Puerarin] | above 90% | above 90% | class IV | – | – | – | – | – | – | – | – | –
2 | CN(C)C(=N)N=C(N)N [metformin] | – | – | – | 4 | 8.91 | 8.88 | 9.47 | 3.69 | 4.68 | increased | increased | 2051
